Data on 17 compounds can be found in patent US12162867B2, “Inhibitors of RNA helicase DHX9 and uses thereof” (ACCENT THERAPEUTICS, INC., priority 2022, dated 2024).

The structures appear in SMILES notation. Where two headings read alike, the source gives them in different places. Some results are limits rather than exact numbers.

What all share (assay type): cell-based
In one assay the test system is LS411N cells. Nature of the assay: DHX9 cellular proliferation assay (CellTiter-Glo), LS411N (CRC-MSI). The settings on record: Homo sapiens, LS-411N, read-out: LS411N (CRC-MSI-H) Antiproliferative IC50. (ATP-based viability assays read luminescence as a measure of living cells.)
In another assay the test system is NCI-H747 cells. Nature of the assay: DHX9 cellular proliferation assay (CellTiter-Glo), NCI-H747 (CRC-MSS). The settings on record: Homo sapiens.
Assay [1] deals with circBRIP1 in HCT116 cells. As to the kind of experiment: DHX9 circBRIP1 cellular target engagement TaqMan Multiplex assay (qPCR). The following applies: Homo sapiens.
Assay [2] relates to circBRIP1 in HCT116 cells. As to the kind of experiment: DHX9 circBRIP1 cellular target engagement SYBR Green assay (qPCR). The settings on record: Homo sapiens, HCT-116, circBRIP1, HCT116 cells; SyBr assay (marked ^+); read-out: DHX9 Cellular Target Engagement EC50. For orientation: In qPCR the cycle at which signal appears reflects the starting amount.
Setting [3] is: NCI-H747, NCI-H747, performed at Pharmaron, read-out: H747 (CRC-MSS) Antiproliferative IC50.
[4] abbreviates: HCT-116, circBRIP1, HCT116 cells, * Taqman assay was used, read-out: DHX9 Cellular Target Engagement EC50.
The mark [5] stands for this setting: LS411N, CRC-MSI-H, performed at Pharmaron.
Setting [6] is: NCI-H747, NCI-H747, CRC-MSS, performed at Pharmaron, read-out: H747 (CRC-MSS) Antiproliferative IC50.
The mark [7] stands for this setting: HCT-116, 72 h, circBRIP1, HCT116 cells, 72 hours, Taqman assay (marked *), read-out: DHX9 Cellular Target Engagement EC50.

As usually defined, the IC50 is the concentration at which inhibition is half-maximal. One may read the EC50 as the concentration that produces a half-maximal response. As to `Cc1sc(C(=O)Nc2cc(Cl)cc(NS(C)(=O)=O)c2)cc1-c1ncc(OC(C)(C)CO)cn1` [Example 678], the IC50 is 391 nM with LS411N cells (LS411N, performed at Pharmaron) and 3100 nM in the assay with NCI-H747 cells (setting [3]). In addition, the 50% effective concentration (EC50) in assay [1] (setting [4]) stood at 0.0187 µM.
For the compound `Cc1cc(C(=O)Nc2cc(Cl)cc(NS(C)(=O)=O)c2)cn1-c1ncc(N2CC(F)(F)C2)cc1C#N` [Example 415], the half-inhibitory concentration (IC50) is 502 nM with LS411N cells (LS411N, performed at Pharmaron) and 7150 nM in the assay with NCI-H747 cells (setting [3]). Also, the 50% effective concentration (EC50) in assay [1] (setting [4]) was 0.0689 µM.
For `Cc1cc(C(=O)Nc2cc(Cl)cc(NS(C)(=O)=O)c2)cn1-c1ccc(N2C3CCC2CC3)cn1` [Example 523], the IC50 with LS411N cells (LS411N, performed at Pharmaron) was 174 nM; in the assay with NCI-H747 cells (setting [3]), 5950 nM. The concentration giving a half-maximal response (EC50) in assay [1] (setting [4]) was 0.0572 µM.
For `Cn1cc(C(=O)Nc2cc(Cl)cc(NS(C)(=O)=O)c2)cc1-c1ncc(N2CCC3(C2)CC3(F)F)cn1` (stereo not drawn) [Example 494], the IC50 with LS411N cells (LS411N, performed at Pharmaron) was 129 nM; in the assay with NCI-H747 cells (setting [3]), > 10000 nM. Besides, the half-maximal effective concentration (EC50) in assay [1] (setting [4]) worked out at 0.0429 µM.
In the case of `COc1cc(N2CC(F)(F)C2)cnc1-c1cc(C(=O)Nc2cc(Cl)cc(NS(C)(=O)=O)c2)sc1C` [Example 535], the IC50 with LS411N cells (LS411N, performed at Pharmaron) was 93.3 nM; with NCI-H747 cells (setting [3]), > 10000 nM. For the same compound, in assay [1] (setting [4]), the EC50 came to 0.0047 µM.
As to `Cc1sc(C(=O)Nc2cc(Cl)cc(NS(C)(=O)=O)c2)cc1-c1ncc(OC(C)C)cn1` [Example 541, N-(3-chloro-5-(methylsulfonamido)phenyl)-4-(5-isopropoxypyrimidin-2-yl)-5-methylthiophene-2-carboxamide], the IC50 in the assay on LS411N cells is 49.8 nM; with NCI-H747 cells (NCI-H747, read-out: H747 (CRC-MSS) Antiproliferative IC50), 6000 nM. In addition, the half-maximal effective concentration (EC50) in assay [1] (HCT-116, read-out: DHX9 Cellular Target Engagement EC50 (μM)) worked out at 0.0377 µM.
Take `Cc1sc(C(=O)Nc2cc(Cl)cc(NS(C)(=O)=O)c2)cc1-c1ncc(N(C)S(C)(=O)=O)cn1` [Example 720]: the IC50 in the assay with LS411N cells (LS411N, performed at Pharmaron) was 452 nM; in the assay with NCI-H747 cells (setting [3]) it was 7900 nM. Besides, the 50% effective concentration (EC50) in assay [1] (setting [4]) was found to be 0.0549 µM.
Turning to `Cc1sc(C(=O)Nc2cc(Cl)cc(NS(C)(=O)=O)c2)cc1-c1ncc(F)cc1OCc1cnco1` [Example 732], the half-maximal inhibitory concentration (IC50) is 34.1 nM in the assay on LS411N cells (LS411N, performed at Pharmaron) and 4570 nM in the assay with NCI-H747 cells (setting [3]). For the same compound, the EC50 in assay [1] (setting [4]) came out at 0.0261 µM.
On to `Cc1sc(C(=O)Nc2cc(Cl)cc(NS(C)(=O)=O)c2)cc1-c1ncc(C2(F)COC2)cn1` [Example 680], for which the concentration for half-maximal inhibition (IC50) in the assay with LS411N cells (LS411N, performed at Pharmaron) was 208 nM; with NCI-H747 cells (setting [3]) it was 8760 nM. Besides, in assay [1] (setting [4]), the EC50 is 0.031 µM.
With `Cc1sc(C(=O)Nc2cc(Cl)cc(NS(C)(=O)=O)c2)cc1-c1ccc(C2CN(CC(F)(F)F)C2)cn1` [Example 710], the IC50 in the assay with LS411N cells (LS411N, performed at Pharmaron) is 48.1 nM; in the assay on NCI-H747 cells (setting [3]), 5400 nM. In assay [1] (setting [4]), the EC50 was 0.0107 µM.
For the compound `Cc1sc(C(=O)Nc2cc(Cl)cc(NS(C)(=O)=O)c2)cc1-c1ccc(C#N)cn1` [Example 377], the IC50 is 140 nM with LS411N cells (setting [5]) and > 10000 nM in the assay on NCI-H747 cells (setting [6]). Further, the EC50 in assay [1] (setting [7]) was found to be 0.0374 µM.
For `CC(C)(C)Oc1cnc(-c2csc(C(=O)Nc3cc(Cl)cc(NS(C)(=O)=O)c3)c2)nc1` [Example 379] the same measures were 83 nM, 4710 nM and 0.0566 µM.
As to `Cc1sc(C(=O)Nc2cc(Cl)cc(NS(C)(=O)=O)c2)cc1-c1ccc(N2CC(C(F)(F)F)C2)cn1` [Example 496], the IC50 with LS411N cells (LS411N, performed at Pharmaron) was 48.2 nM; with NCI-H747 cells (setting [3]), 2020 nM. Also, the EC50 in assay [1] (setting [4]) came to 0.0233 µM.
Regarding `Cc1sc(C(=O)Nc2cc(F)cc(NS(C)(=O)=O)c2)cc1-c1ncc(N2CC(C(F)(F)F)C2)cc1F` [Example 501], the concentration for half-maximal inhibition (IC50) with LS411N cells (LS411N, performed at Pharmaron) is 274 nM; with NCI-H747 cells (setting [3]) it was 7260 nM. For the same compound, the 50% effective concentration (EC50) in assay [1] (setting [4]) is 0.0933 µM.
For the compound `CCS(=O)(=O)Nc1cc(Cl)cc(NC(=O)c2cc(-c3ncccc3C)cs2)c1` [Example 224], the 50% inhibitory concentration (IC50) with LS411N cells (setting [5]) was 122 nM; in the assay with NCI-H747 cells (setting [6]) it was > 10000 nM. For the same compound, the EC50 in assay [2] was 55.8 nM.
Take `CS(=O)(=O)Nc1cc(Cl)cc(NC(=O)c2cc(-c3ncccc3OCc3cccnc3)n(CC(F)(F)F)c2)c1` [Example 185]: the IC50 in the assay with LS411N cells (setting [5]) was 139 nM; in the assay on NCI-H747 cells (setting [6]), 8380 nM. Moreover, in assay [2], the EC50 is 73.3 nM.
Take `CS(=O)(=O)Nc1cc(Br)cc(NC(=O)c2cc(-c3ncccn3)cs2)c1` [Example 25]: the IC50 in the assay on LS411N cells (setting [5]) was 99.1 nM; with NCI-H747 cells (setting [6]) it was > 10000 nM. Further, the concentration for a half-maximal effect (EC50) in assay [2] stood at 48 nM.
